Measured values taken from ChEMBL document CHEMBL1165927, “Insulinomimetic activity of two new gallotannins from the fruits of Capparis moonii” (2010).
Activity calls are given as the source filed them. The rule behind the calls is not given here.

Tests used:
[1] = biological target: T1, Insulin receptor substrate 1 (Rattus norvegicus) (UniProt P35570); experiment: […] in rat L6 cells after 24 hrs by immunoprecipitation; format: cell-based
T1 sequence (whole entry): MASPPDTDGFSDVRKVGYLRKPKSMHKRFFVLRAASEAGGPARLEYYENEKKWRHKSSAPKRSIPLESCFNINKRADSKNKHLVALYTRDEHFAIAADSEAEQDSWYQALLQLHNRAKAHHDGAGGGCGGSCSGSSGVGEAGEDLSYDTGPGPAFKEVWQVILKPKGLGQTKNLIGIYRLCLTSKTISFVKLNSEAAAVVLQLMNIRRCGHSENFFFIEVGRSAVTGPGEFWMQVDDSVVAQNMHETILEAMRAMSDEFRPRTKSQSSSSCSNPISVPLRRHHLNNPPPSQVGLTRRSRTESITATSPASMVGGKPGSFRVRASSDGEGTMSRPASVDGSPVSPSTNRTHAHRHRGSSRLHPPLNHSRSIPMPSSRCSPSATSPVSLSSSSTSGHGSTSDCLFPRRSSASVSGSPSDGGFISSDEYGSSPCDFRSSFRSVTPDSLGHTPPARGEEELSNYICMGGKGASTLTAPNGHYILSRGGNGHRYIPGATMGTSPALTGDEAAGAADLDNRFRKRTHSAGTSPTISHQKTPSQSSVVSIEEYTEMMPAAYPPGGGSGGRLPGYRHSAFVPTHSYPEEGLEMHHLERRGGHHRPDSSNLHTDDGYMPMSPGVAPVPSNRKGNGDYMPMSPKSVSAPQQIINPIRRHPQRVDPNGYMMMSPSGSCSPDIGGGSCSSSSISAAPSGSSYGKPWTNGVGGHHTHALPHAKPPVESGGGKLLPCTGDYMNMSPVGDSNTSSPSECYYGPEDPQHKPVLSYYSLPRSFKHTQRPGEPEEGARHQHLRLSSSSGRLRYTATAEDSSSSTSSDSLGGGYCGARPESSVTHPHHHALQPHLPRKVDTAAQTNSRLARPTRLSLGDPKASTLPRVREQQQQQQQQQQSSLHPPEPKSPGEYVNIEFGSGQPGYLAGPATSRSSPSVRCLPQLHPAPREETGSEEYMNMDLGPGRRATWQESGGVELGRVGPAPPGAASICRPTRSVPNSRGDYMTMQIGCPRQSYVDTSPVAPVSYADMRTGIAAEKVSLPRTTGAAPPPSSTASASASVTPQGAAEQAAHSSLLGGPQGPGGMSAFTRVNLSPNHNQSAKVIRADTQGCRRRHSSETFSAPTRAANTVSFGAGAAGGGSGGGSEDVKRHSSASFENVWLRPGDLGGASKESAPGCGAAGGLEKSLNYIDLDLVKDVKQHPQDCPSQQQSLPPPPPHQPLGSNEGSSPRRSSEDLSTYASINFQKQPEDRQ

[2] = biological target: Insulin receptor (Rattus norvegicus) (UniProt P15127); experiment: […] in rat L6 cells after 24 hrs by immunoprecipitation; format: cell-based
L6 [3] = experiment: Inhibition of glucose uptake in rat L6 myocyte at 10 ng/ml after 24 hrs; format: functional, cell-based
L6 [4] = experiment: Increase in GLUT4 mRNA expression in rat L6 cells at 50 uM by RT-PCR; format: functional, cell-based
L6 [5] = experiment: Increase in PI3K mRNA expression in rat L6 cells at 100 ng/ml by RT-PCR; format: functional, cell-based
L6 [6] = experiment: Increase in PI3K mRNA expression in rat L6 cells at 10 ng/ml by RT-PCR; format: functional, cell-based
L6 [7] = experiment: Inhibition of glucose uptake in rat L6 myocyte at 50 uM after 24 hrs; format: functional; details: L6, 24 h, values are per cent of control

Sequence of Insulin receptor (Rattus norvegicus) (P15127 27-759 limits assumed): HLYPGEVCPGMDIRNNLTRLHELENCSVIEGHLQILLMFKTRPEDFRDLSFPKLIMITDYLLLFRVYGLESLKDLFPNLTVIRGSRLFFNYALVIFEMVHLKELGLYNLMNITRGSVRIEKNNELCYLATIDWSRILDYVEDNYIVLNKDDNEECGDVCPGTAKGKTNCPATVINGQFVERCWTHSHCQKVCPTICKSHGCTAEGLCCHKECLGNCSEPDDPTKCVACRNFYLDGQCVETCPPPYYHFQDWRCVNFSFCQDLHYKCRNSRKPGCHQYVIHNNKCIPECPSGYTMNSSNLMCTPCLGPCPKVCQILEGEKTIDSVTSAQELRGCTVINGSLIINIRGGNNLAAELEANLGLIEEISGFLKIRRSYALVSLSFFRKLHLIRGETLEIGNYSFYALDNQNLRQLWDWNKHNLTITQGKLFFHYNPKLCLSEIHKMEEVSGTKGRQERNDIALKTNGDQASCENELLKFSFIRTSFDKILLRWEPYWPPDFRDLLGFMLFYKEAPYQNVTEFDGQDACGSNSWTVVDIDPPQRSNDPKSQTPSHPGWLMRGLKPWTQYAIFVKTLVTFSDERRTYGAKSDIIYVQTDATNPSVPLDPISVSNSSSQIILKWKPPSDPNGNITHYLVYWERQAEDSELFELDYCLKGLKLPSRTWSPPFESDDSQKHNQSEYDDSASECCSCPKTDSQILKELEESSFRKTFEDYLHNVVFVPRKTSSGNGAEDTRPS
Sequence of Insulin receptor (Rattus norvegicus) (P15127 764-1383 limits assumed): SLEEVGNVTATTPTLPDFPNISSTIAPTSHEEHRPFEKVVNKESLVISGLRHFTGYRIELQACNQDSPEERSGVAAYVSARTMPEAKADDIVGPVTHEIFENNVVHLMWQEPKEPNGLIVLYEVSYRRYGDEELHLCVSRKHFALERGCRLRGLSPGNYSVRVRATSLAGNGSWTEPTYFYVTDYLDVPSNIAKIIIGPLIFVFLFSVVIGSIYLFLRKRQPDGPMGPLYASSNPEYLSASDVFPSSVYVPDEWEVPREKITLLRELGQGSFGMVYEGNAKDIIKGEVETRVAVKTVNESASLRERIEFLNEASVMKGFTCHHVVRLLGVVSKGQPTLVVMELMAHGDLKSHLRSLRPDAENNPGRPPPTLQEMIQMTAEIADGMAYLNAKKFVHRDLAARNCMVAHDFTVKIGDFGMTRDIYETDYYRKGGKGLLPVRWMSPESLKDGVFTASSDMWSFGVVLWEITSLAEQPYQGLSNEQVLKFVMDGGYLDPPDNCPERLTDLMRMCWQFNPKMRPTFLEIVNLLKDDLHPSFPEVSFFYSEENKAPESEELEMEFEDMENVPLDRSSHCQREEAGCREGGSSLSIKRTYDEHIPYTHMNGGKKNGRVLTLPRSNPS

Row | SMILES | inhibition [1] | inhibition [2] | inhibition (L6 [3]) | Activity (L6 [4]) | Activity (L6 [5]) | Activity (L6 [6]) | residual activity at 50 µM (L6 [7]) [%]
1 | COC(=O)CC(C(=O)O)C1c2c(C(=O)O[C@H]3[C@H](OC(=O)c4cc(O)c(O)c(O)c4)O[C@H](COC(=O)c4cc(O)c(O)c(O)c4)[C@@H](O)[C@H]3OC(=O)c3cc(O)c(O)c(O)c3)cc(O)c(O)c2OC(=O)C1O (stereo partly specified) | Active | Active | Dose-dependent effect | Active | Active | – | –
2 | O=C(O)CC(C(=O)O)C1c2c(C(=O)O[C@H]3[C@H](OC(=O)c4cc(O)c(O)c(O)c4)O[C@H](COC(=O)c4cc(O)c(O)c(O)c4)[C@@H](O)[C@H]3OC(=O)c3cc(O)c(O)c(O)c3)cc(O)c(O)c2OC(=O)C1O (stereo partly specified) | Active | Active | Dose-dependent effect | Active | – | Active | –
3 | CN(CCOc1ccc(CC2SC(=O)NC2=O)cc1)c1ccccn1 (stereo unspecified) [ROSIGLITAZONE] | – | – | – | – | – | – | 240
